Test results: US20130129675A1, “INTERFERON THERAPIES IN COMBINATION WITH BLOCKADE OF STAT3 ACTIVATION” (BOARD OF REGENTS, THE UNIVERSITY OF TEXAS SYSTEM, priority 2009, published 2013)

What was measured:
B16 target cells = experiment: Ex vivo splenocyte cytotoxicity assay; assay type: cell-based, mice; conditions: 48 h
Source text: Spleens from 4- to 6-week-old female mice in the above treatment schema were harvested and disassociated into a single cell suspension. After erythrocytes were lysed with 1×RBC lysis buffer (eBioscience), splenocytes were washed once with RPMI 1640 medium and were ready as effector cells for the standard cytotoxicity assay. Wang L, Yi T, Kortylewski M, Pardoll D M, Zeng D, Yu H, IL-17 Can Promote Tumor Growth Through An IL-6-Stat3 Signaling Pathway, J Exp Med 2009; 206:1457-64. For target cells, B16 cells in RPMI 1640 medium were cultured for 3 days, trypsinized, pelleted, and resuspended in FACS buffer at room temperature to achieve a concentration of 10^6 cells/ml. Carboxy-fluorescein diacetate succinimidyl ester (CFSE) stock solution (CellTrace CFSE Cell Proliferation Kit; Invitrogen, Eugene, Oreg.) was added to achieve a final concentration of 4 μM. The mixture was incubated at 37° C. for 10 minutes, and then the staining reaction was quenched by the addition of five volumes of ice-cold PBS for 5 minutes. The B16 cells were washed three times in RPMI 1640 medium and plated for the cytotoxicity assay. The ratios of splenocyte effector cells to B16 target cells were 30:1 and 100:1. After 48 h of incubation, the CFSE-labeled B16 melanoma cells were removed from the plates with trypsin-EDTA (0.05%) and analyzed by FACS. The B16 cells were stained with propidium iodide (PI; BD Biosciences) to distinguish viable cells from nonviable cells. B16 cells that were stained with CFSE and PI were considered nonviable. Flow cytometric acquisition of the B16 target cells was performed with a FACSCalibur flow cytometer (BD Biosciences), and data analysis was performed using FlowJo software (TreeStar, Ashland, Oreg.).
To ascertain the underlying in vivo immunological mechanism that is responsible for the therapeutic efficacy, we examined splenocytes cytotoxic responses directed against B16 melanoma cells. Splenocytes from control mice and mice treated with WP1193, IFN-α, or IFN-α+WP1193 were isolated and co-cultured with CFSE-labeled B16 target cells for 48 hours to assess splenocyte cytotoxicity against B16 cells. […] Furthermore, in mice treated with both IFN-α and WP1193, there was additive enhanced cytotoxic clearance of the B16 target cells compared with mice that were treated with either WP1193 or IFN-α alone (P<0.01;).

[1] = tested on: B16 target cells (NK1.1+CD3− NK effector cells); experiment: NK cell cytotoxicity assay against melanoma cells; assay type: cell-based, mice; conditions: WP1193 2 μM, IFN-α 20 ng/ml, 48 h, control 8.8
Procedure: (§1) Splenocytes were prepared as described above. NK1.1+CD3− NK effector cells or CD3+CD8+ T effector cells were sorted from splenocytes on a FACSAria Cell Sorter (BD Biosciences) with FITC-conjugated anti-mouse NK1.1 (eBioscience), PE-conjugated anti-CD3, and allophycocyanin (APC)-conjugated anti-CD8 antibodies (Miltenyi Biotec, Auburn, Calif.). B16 target cells were prepared as described above. The ratio of NK1.1+CD3− NK effector cells or CD8+ T effector cells to B16 target cells was 10:1 and 5:1, respectively. In the presence of NK1.1+CD3− NK cells or CD8+ T cells, treatment groups consisted of B16 target cells alone; B16 cells with 2 μM of WP1193; B16 cells with 20 ng/ml of IFN-α; B16 cells with 2 µM of WP1193 and 20 ng/ml of IFN-α. After 48 hours of incubation, the CFSE-labeled B16 melanoma cells were removed from the plates with trypsin and analyzed by FACS. Then, B16 cells were stained with PI (BD Biosciences) to distinguish viable cells from nonviable cells. B16 cells that were stained with CFSE and PI were considered nonviable. Flow cytometric acquisition of the B16 target cells was performed with a FACSCalibur flow cytometer (BD Biosciences), and data analysis was performed using FlowJo software (TreeStar). […]

[2] = tested on: B16 target cells (CD3+CD8+ T effector cells); experiment: CD8+ T cell cytotoxicity assay against melanoma cells; assay type: cell-based, mice; conditions: WP1193 2 μM, IFN-α 20 ng/ml, 48 h, control 10.8
Procedure: as §1

B16 cells = experiment: MHC I, MHC II and NK cell ligands on B16 melanoma cells (flow cytometry); assay type: cell-based, murine; conditions: WP1193 2 μM, IFN-α 20 ng/ml; for MHC I expression on B16: 24 hours (FIG. 6A); for surface H60, Rae-1 and CD155 (NK ligands) on B16: 24 hours (FIG. 6B)
Procedure: To ascertain the MHC I, MHC II, and NK ligands expressed on melanoma cells, B16 cells were seeded at a density of 2×10^6 cells/well in 24-well culture plates and cultured with the RPMI 1640 medium in the absence or presence of WP1193 (2 μM) and/or INF-α (20 ng/ml) for 24 hours. Afterwards, the cells were harvested and washed twice, and 10^6 cells in duplicate were Fc blocked with purified rat anti-mouse CD16/CD32 (BD Biosciences) for 15 minutes at room temperature. The B16 cells were washed and then stained for approximately 30 minutes at 4° C. with FITC-conjugated rat anti-mouse MHC I mAb (Abeam, Cambridge, Mass.), PE-conjugated rat anti-mouse MHC Class II mAb (Abeam), FITC-conjugated rat anti-mouse Rae-1 mAb (R&D Systems), APC-conjugated rat anti-mouse H60 mAb (R&D Systems) or PE-conjugated rat anti-mouse CD155 mAb (Biolegend). Negative control cells were stained with the corresponding isotypes. Following incubation, the cells were washed twice with FACS buffer and then analyzed with a BD FACSCalibur with gates set for viable cells.
Because we observed NK and CD8+ T cell-mediated anti-tumor cytotoxicity were enhanced with combinational therapy, to ascertain if either IFN-α, WP1193 or both were augmenting the expression of MHC or NK activating receptors or their ligands, splenocytes and B16 cells were treated with RPMI 1640 medium (control), WP1193 (2 μM), IFN-α (20 ng/ml), or IFN-α (20 ng/ml)+WP1193 (2 μM) for 24 hours. The NK-activating ligands (Rae-1, H60 and CD155) and MHC (I and II) on B16 cells and the NK-activating receptors (NKG2D, KLRD1, NKp46 and DNAM-1) on NK1.1+ NK cells were analyzed by flow cytometric analysis.

[3] = 30:1 ratio of splenocytes to B16 Tumor Cells, control 25.2
[4] = 100:1 ratio of splenocytes to B16 Tumor Cells, control 38.1

| Molecule | % of B16 Killimg (B16 target cells; [3]) [%] | % of B16 Killimg (B16 target cells; [4]) [%] | % of B16 Killimg [1] [%] | % of B16 Killimg [2] [%] | MHC I expression on B16 (B16 cells) | surface H60, Rae-1 and CD155 (NK ligands) on B16 (B16 cells) |
| --- | --- | --- | --- | --- | --- | --- |
| N#C/C(=C\c1cccc(Br)n1)C(=O)N[C@H](c1ccccc1)C1CC1 [WP1193, (S,E)-3-(6-bromopyridin-2-yl)-2-cyano-N-(cyclopropyl(phenyl)methyl)acrylamide] | 29.8 | 42.0 | 10.9 | 11.2 | not further enhanced | do not alter the receptor density of the NK ligands |
| IFN-α | 40.1 | 51.6 | 12.5 | 14.3 | enhanced | do not alter the receptor density of the NK ligands |
